Data on 13 compounds can be found in US6150363A, “Dihydrophenazinecarboxylic acid derivatives” (priority 1996, dated 2000).

Where a name gives a salt, the structure may show the parent alone.

As usually defined, the EC50 is the concentration at which the effect is half-maximal. Low readings indicate a more potent agent, high ones a less potent agent. The term EC25 denotes the concentration at which the effect reaches the 25% level.

For series [1], the system named is N18-RE-105 cell. As to the kind of experiment: Test for inhibition of glutamic acid toxicity to neurocyte (LDH release). It counts as cell-based, hybridoma of mouse neuroblastoma and rat retinal neurocyte. Particulars: for EC50: 10 mM glutamic acid, 24 hours; for cytoprotective action to glutamic acid toxicity in neurocyte: result in words. The protocol:
Neuron 2, 1547 (1989) and J. Pharmacol. Exp. […] The dihydrophenazinecarboxylic acid derivatives of the invention were examined in the action to the glutamic acid-induced cell death. […] Hybridoma cells were plated at 6.25×10^3 cells/cm^2. on 96 well microplate in Dalbecco's modified MEM containing 10% FBS (fetal bovine serum) and HAT (hypoxanthine 0.1 mM, aminopterin 40 nM, thymidine 0.14 mM, Sigma Chem., Co.). […] After the addition of glutamic acid, the culture was maintained for further 24 hours. Then, the activity of lactate dehydrogenase (LDH) contained in the cells and the medium was determined. The LDH releasing ratio was calculated using the below-mentioned equation to examine the glutamic acid toxicity. LDH releasing ratio=[LDH activity in medium/(LDH activity in cells and LDH activity in medium)]×100
Background: LDH leaks from cells whose membrane has failed.

The test system of series [2] is N18-RE-105 cell. As to the kind of experiment: Test for inhibition of BSO toxicity to neurocyte (LDH release). In kind it is cell-based, hybridoma of mouse neuroblastoma and rat retinal neurocyte. As to conditions: for EC50: BSO 500 μM, 24 hours; for cytoprotective action to BSO toxicity in neurocyte: result in words. The protocol: (2) Test for inhibition of BSO toxicity to neurocyte (neurocyte protective action against cytotoxicity accompanied by decrease of amount of intracellular glutathione)
The culture of neurocyte N18-RE-105, addition of the test compound, and determination of lactate dehydrogenase (LDH) were carried out in the manner as described in (1) above. BSO was added at the concentration of 500 μM.

A short description of series [3]: Stability at room temperature under atmospheric conditions. In kind it is physicochemical.
In series [4] the test system is glutamic acid toxicity. Particulars: J. Antibiotics, 48, 1378 (1995) and PCT WO96/22996; cited from earlier work.
Series [5] deals with free radical. Particulars: cited from earlier work; for antioxidant property: J. Antibiotics, 48, 1378 (1995) and PCT WO96/22996; for free radical scavenger (anti-oxidant): J. Nat. Prod., 56, 1255(1993).
Series [6] relates to hippocampal cells. As to the kind of experiment: Test for inhibition of glutamic acid toxicity to hippocampal cells in primary culture (LDH). In kind it is cell-based. As to conditions: hippocampal cell, rat fetus, 1 mM glutamic acid, 48 hours. The source says: 1) Preparation of hippocampal cells (from rat fetus in primary culture) A pregnant rat (18 days pregnancy) was anesthetized by Pentobarbital sodium. Its abdomen was sterilized using 83% ethanol and treated to take its fetus out. The whole brain was taken out from the fetus under stereomicroscopical observation. From the brain, its hippocampal portion was taken out. The hippocampal portion was cut into small pieces using a knife. The procedures for taking the hippocampal portion out and cutting the portion into small pieces were performed in a Hanks buffer solution (4° C.) without Ca^2+ and Mg^2+. The pieces of hippocampus were treated with 0.25% trypsin/0.01% DNase I solution at 37° C. for 30 minutes. After the addition of dialyzed FBS at the concentration of 20%, the treated specimen was recovered by centrifugal separation and suspended in DMEM containing GMS-A obtained from GIBCO (S1 culture medium). The specimen was gently treated by a pipet to give a cell suspension. […] 2) Determination of activity (Lactate dehydrogenase (LDH) method) The cytoprotective action of the test compound was determined by measuring activity of LDH released from the dead cells and activity of LDH in the living cells. […] After the culturing procedure was complete, the activity of lactate dehydrogenase was determined in the manner described in 1) above.

Series [7] relates to ddY strain male mice. Briefly: Acute toxicity, intravenous, mice. Particulars: 5 mg, intravenous injection. It counts as in vivo. The protocol:
The compound of the invention (ethyl 7-benzoyl-5,10-dihydro-1-phenazinecarboxylate obtained in Example 1) was administered to ddY strain male mice (weight: 23 to 27 g) in a dose of 5 mg by intravenous injection.

Series [8] concerns rat whole brain homogenate. Briefly: Test for inhibition of production of peroxidized lipid in rat whole brain homogenate (TBA method). It counts as biochemical. Particulars: 10^-4 M, iron-ascorbic acid, 37° C., one hour. From the text: (4) Test for inhibition of production of peroxidized lipid in rat whole brain homogenate
From the rat which had been fed with vitamin E deficient food for 11 weeks, a whole brain was taken out and frozen in liquid nitrogen. After the frozen whole brain was pulverized to give a powder, it was homogenized by Dounce type homogenizer. The homogenate was subjected to centrifugal separation at 180×g for 10 minuets, and the supernatant was recovered. The recovered supernatant was employed as the whole brain homogenate. The reaction of lipid peroxidation was initiated by stimulation using iron-ascorbic acid. The peroxidized lipid was quantitatively analyzed by the thiobarbituric acid (TBA) method. In more detail, 200 μL of the whole brain homogenate (protein content: 12.5 mg/mL), 50 μL of ADP (2 mg/mL), 50 μL of FeSO4 (0.5 mM), 50 μL of ascorbic acid (12 mM), and 50 μL of the test compound were added to 100 μL of 0.2M Tris-HCl buffer solution. The mixture was incubated at 37° C. for one hour. After the incubation was complete, 50 μL of 0.5% butylhydroxytoluene/ethanol solution, 250 μL of 8.1% SDS (sodium dodecylsulfate) solution, 1,750 μL of 20% acetic acid, and 1,500 μL of 0.8% TBA solution were added to the incubated mixture. The resulting mixture was boiled for one hour. […] The separated supernatant was subjected to measurement of absorbance at 535 nm.

As for `O=c1c2ccccc2[se]n1-c1ccccc1` [Ebselen, ebselen], in series [1], it took 10100 nM to reach a half-maximal effect (EC50) and the “cytoprotective action to glutamic acid toxicity in neurocyte” value is “no cytoprotective action”. In addition, in series [2], the EC50 was 7500 nM and the “cytoprotective action to BSO toxicity in neurocyte” value is recorded as “no cytoprotective action”.
In the case of `CCOC(=O)c1cccc2c1Nc1ccccc1N2` [ethyl 5,10-dihydro-1-phenazinecarboxylate], the stability result in series [3] is “unstable at room temperature”.
Regarding `CC(CNC(=O)c1cccnc1)NC(=O)c1cccnc1` (stereo not shown) [Nicarven, nicaraven], in series [1], the EC50 was above 100000 nM and the “cytoprotective action to glutamic acid toxicity in neurocyte” value was “no cytoprotective action”. Also, in series [2], the EC50 was above 100000 nM and the “cytoprotective action to BSO toxicity in neurocyte” value is “no cytoprotective action”.
With `CC(C)=CCc1cc(C(=O)c2ccccc2)cc2c1Nc1c(C(=O)OC3O[C@@H](C)[C@H](O)[C@@H](O)[C@H]3O)cccc1N2CC=C(C)C` (stereo partly shown) [aestivophoenin B], the “inhibition of glutamic acid toxicity” value in series [4] is recorded as “inhibit glutamic acid toxicity”. The antioxidant property result in series [5] is “shows antioxidant property”.
Turning to `CCOC(=O)c1cccc2c1Nc1ccc(C(=O)c3ccccc3)cc1N2Cc1ccccc1` [Compound 3, Ethyl 7-benzoyl-5-benzyl-5,10-dihydro-1-phenazinecarboxylate], the figures for the EC50 in series [1] and in series [2] were 40.7 nM and 72 nM, respectively.
With `COC(=O)c1cc(C(=O)c2ccccc2)cc2c1Nc1ccc(C(=O)c3ccccc3)cc1N2C/C=C(\C)CCC=C(C)C` [its methyl ester], the “free radical scavenger (anti-oxidant)” value in series [5] is “employable as a free radical scavenger (anti-oxidant)”.
As for `CC(C)=CCN1c2cc(C(=O)c3ccccc3)ccc2Nc2c(C(=O)OCCCN(C)C)cccc21` [Compound 5, 3-(Dimethylamino)propyl 7-benzoyl-5,10-dihydro-5-(3-methyl-2-butenyl)-1-phenazinecarboxylate hydrochloride], in series [6], it took 57.5 nM to reach the 25% level (EC25).
Consider `CCOC(=O)c1cccc2c1Nc1ccc(C(=O)c3ccccc3)cc1N2C(=O)OC` [Comparative, Ethyl 7-benzoyl-5,10-dihydro-5-methoxycarbonyl-1-phenazinecarboxylate], for which, in series [1], the EC50 is above 1000 nM and the “cytoprotective action to glutamic acid toxicity in neurocyte” value is “no cytoprotective action”. Moreover, in series [2], the EC50 is above 1000 nM and the “cytoprotective action to BSO toxicity in neurocyte” value is listed as “no cytoprotective action”.
In the case of `CCOC(=O)c1cccc2c1Nc1ccc(C(=O)c3ccccc3)cc1N2C` [Compound 4, Ethyl 7-benzoyl-5,10-dihydro-5-methyl-1-phenazinecarboxylate], the values for the half-maximal effective concentration (EC50) in series [1] and in series [2] were 58 nM and 90 nM, respectively.
With `CCOC(=O)c1cccc2c1Nc1ccc(C(=O)c3ccccc3)cc1N2` [Compound 1, Ethyl 7-benzoyl-5,10-dihydro-1-phenazinecarboxylate], the EC50 in series [1] turned out to be 3.3 nM; in series [2], 6 nM. The “death (acute toxicity)” value in series [7] was “No death was observed”.
On to `CC(C)=CCN1c2cc(C(=O)c3ccccc3)ccc2Nc2c(C(=O)OC3O[C@@H](C)[C@H](O)[C@@H](O)[C@H]3O)cccc21` (stereo partly shown) [aestivophoenin A], for which the “inhibition of glutamic acid toxicity” value in series [4] is “inhibit glutamic acid toxicity”. In addition, the antioxidant property entry in series [5] is given as “shows antioxidant property”.
As for `CCOC(=O)c1cccc2c1Nc1ccc(C(=O)c3ccccc3)cc1N2CC=C(C)C` [Compound 2, Ethyl 7-benzoyl-5,10-dihydro-5-(3-methyl-2-butenyl)-1-phenazinecarboxylate], the concentration for a half-maximal effect (EC50) was determined as 14.5 nM in series [1] and 96.2 nM in series [2]. Further, in series [6], the 25% effect concentration (EC25) was determined as 12 nM. Also, the “Inhibition of lipid peroxidation (% per control value)” value in series [8] stood at 60.2%.
Turning to `CC(C)=CCC/C(C)=C/CN1c2cc(C(=O)c3ccccc3)ccc2Nc2c(C(=O)O)cc(C(=O)c3ccccc3)cc21` [benthophoenin], the “free radical scavenger (anti-oxidant)” value in series [5] was “employable as a free radical scavenger (anti-oxidant)”.
